In ChEMBL document CHEMBL3611967, “Molecular design and synthesis of certain new quinoline derivatives having potential anticancer activity” (Eur J Med Chem, 2015):

Assays:
MCF7 = experiment: Anticancer against human MCF7 cells assessed as tumor growth inhibition after 72 hrs by SRB assay; type: functional, cell-based; details: MCF7, 72 h
[1] = target: T1, Epidermal growth factor receptor (Homo sapiens, UniProt P00533); experiment: Inhibition of epidermal growth factor receptor kinase (unknown origin) using [33P]-ATP after 20 to 30 mins by radiometric assay
T1 sequence (P00533 whole entry): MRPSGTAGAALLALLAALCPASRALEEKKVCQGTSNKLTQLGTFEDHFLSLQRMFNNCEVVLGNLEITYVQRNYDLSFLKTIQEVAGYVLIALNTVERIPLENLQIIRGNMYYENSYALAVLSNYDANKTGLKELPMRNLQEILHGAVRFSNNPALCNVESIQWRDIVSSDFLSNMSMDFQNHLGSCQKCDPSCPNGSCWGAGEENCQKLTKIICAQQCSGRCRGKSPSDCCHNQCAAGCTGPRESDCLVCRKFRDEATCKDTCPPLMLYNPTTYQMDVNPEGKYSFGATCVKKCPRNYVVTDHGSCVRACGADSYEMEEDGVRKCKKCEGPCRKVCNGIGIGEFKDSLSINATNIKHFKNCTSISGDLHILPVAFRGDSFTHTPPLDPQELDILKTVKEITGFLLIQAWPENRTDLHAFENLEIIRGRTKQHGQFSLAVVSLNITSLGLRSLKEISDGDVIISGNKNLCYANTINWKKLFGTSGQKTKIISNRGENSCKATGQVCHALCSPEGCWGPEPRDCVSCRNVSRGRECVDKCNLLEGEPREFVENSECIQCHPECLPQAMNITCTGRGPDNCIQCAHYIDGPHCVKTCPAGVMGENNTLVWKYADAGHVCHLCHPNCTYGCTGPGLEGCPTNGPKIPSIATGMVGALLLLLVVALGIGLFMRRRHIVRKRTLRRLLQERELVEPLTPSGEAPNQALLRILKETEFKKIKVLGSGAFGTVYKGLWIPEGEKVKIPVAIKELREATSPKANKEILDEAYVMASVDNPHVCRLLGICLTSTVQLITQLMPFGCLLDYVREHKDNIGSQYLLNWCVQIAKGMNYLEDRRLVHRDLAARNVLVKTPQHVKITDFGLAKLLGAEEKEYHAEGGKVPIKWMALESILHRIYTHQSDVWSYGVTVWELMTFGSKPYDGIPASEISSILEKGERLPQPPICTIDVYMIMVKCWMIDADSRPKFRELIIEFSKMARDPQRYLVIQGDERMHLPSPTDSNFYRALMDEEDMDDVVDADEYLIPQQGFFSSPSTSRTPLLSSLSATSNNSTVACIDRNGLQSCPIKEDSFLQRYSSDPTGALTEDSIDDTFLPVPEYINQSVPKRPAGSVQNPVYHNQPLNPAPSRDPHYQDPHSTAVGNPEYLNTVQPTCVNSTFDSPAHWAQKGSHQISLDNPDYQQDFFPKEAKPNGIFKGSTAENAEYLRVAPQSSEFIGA

[2] = target: T1, Epidermal growth factor receptor; experiment: Inhibition of epidermal growth factor receptor kinase (unknown origin) using [33P]-ATP at 0.001 uM after 20 to 30 mins by radiometric assay
[3] = target: T1, Epidermal growth factor receptor; experiment: Inhibition of epidermal growth factor receptor kinase (unknown origin) using [33P]-ATP at 0.1 mM after 20 to 30 mins by radiometric assay

Row | SMILES | IC50 (MCF7) [µM] | further results
1 | Cc1cc(NS(=O)(=O)c2ccc3ncc(C(N)=O)c(Nc4ccc(Cl)cc4)c3c2)no1 | 145 | 
2 | Cc1ccc(Nc2c(C(N)=O)cnc3ccc(C(=O)/C=C/c4ccc(N(C)C)cc4)cc23)cc1 | 2.16 | 
3 | Cc1cc(NS(=O)(=O)c2ccc(N/C=C(/C#N)C(=O)Nc3ccc(Cl)cc3)cc2)no1 | 28.4 | 
4 | Cc1ccc(Nc2c(C(N)=O)cnc3ccc(S(=O)(=O)Nc4cc(C)on4)cc23)cc1 | 120 | 
5 | Cc1cc(NS(=O)(=O)c2ccc3ncc(C(N)=O)c(Nc4ccc(Br)cc4)c3c2)no1 | 33.7 | 
6 | Cc1ccc(NC(=O)/C(C#N)=C\Nc2ccc(S(=O)(=O)Nc3cc(C)on3)cc2)cc1 | 50.9 | 
7 | CN(C)c1ccc(/C=C/C(=O)c2ccc3ncc(C(N)=O)c(Nc4ccc(Cl)cc4)c3c2)cc1 | 3.46 | IC50 [1]: 5.28 µM; inhibition [2]: 1%; inhibition [3]: 3%
8 | C=CC(=O)Nc1ccc2ncnc(Nc3cc(F)c(Cl)c(Cl)c3)c2c1 |  | IC50 [1]: 3.7e-05 µM
9 | CN(C)c1ccc(/C=C/C(=O)c2ccc3ncc(C(N)=O)c(Nc4ccc(Br)cc4)c3c2)cc1 | 51 | 
10 | Cc1cc(NS(=O)(=O)c2ccc(N/C=C(/C#N)C(=O)Nc3ccc(Br)cc3)cc2)no1 | 14 | 

Continued, in another order:

Row | IC50 (MCF7) [µM] | SMILES | further results
11 | 386 | Cc1ccc(Nc2c(C(N)=O)cnc3ccc(-c4csc(NC(=S)Nc5ccccc5)n4)cc23)cc1 | 
12 | 277 | NC(=O)c1cnc2ccc(C(=O)/C=C/c3ccc(Cl)cc3)cc2c1Nc1ccc(Cl)cc1 | 
13 | 315 | NC(=O)c1cnc2ccc(-c3csc(N)n3)cc2c1Nc1ccc(Cl)cc1 | 
14 | 62.2 | Cc1ccc(Nc2c(C(N)=O)cnc3ccc(-c4csc(N)n4)cc23)cc1 | 
15 | 657 | NC(=O)c1cnc2ccc(-c3csc(NC(=S)Nc4ccccc4)n3)cc2c1Nc1ccc(Br)cc1 | 
16 | 328 | NC(=O)c1cnc2ccc(C(=O)/C=C/c3ccc(Cl)cc3)cc2c1Nc1ccc(Br)cc1 | IC50 [1]: 4.82 µM; inhibition [2]: 0%; inhibition [3]: -3%
17 | 334 | NC(=O)c1cnc2ccc(-c3csc(N)n3)cc2c1Nc1ccc(Br)cc1 | 
18 | 41.2 | Cc1ccc(Nc2c(C(N)=O)cnc3ccc(C(=O)/C=C/c4ccc(Cl)cc4)cc23)cc1 | 
19 | 326 | NC(=O)c1cnc2ccc(-c3csc(NC(=S)Nc4ccccc4)n3)cc2c1Nc1ccc(Cl)cc1 | 
